Reference: US8841306B2, “Antimicrobials” (Panacea Biotec Ltd., priority 2008, dated 2014)
≈ marks a conversion by molar mass, not a printed value. Read-outs that look alike come from different tables or passages of the source.

Legend:
[1] = tested on: E. faecalis ATCC 29212; test: In-vitro antibacterial activity, broth microdilution MIC (CLSI); assay type: cell-based; settings: Enterococcus faecalis, ATCC29212, 35±2° C., 16-20 h, read visually
Protocol: (§1) The in-vitro antibacterial activity of the compounds of the present invention (as described in Table 2) was determined by a broth microdilution following the guidelines prescribed by the Clinical and Laboratory Standards Institute (CLSI). This method is described in the CLSI Document M7-A7, Vol. 26, No. 2, “Methods for Dilution Antimicrobial Susceptibility Test for Bacteria that Grow Aerobically; Approved Standard-Seventh Edition”, which is incorporated herein by reference. Minimum Inhibitory Concentration (MIC) is defined as the minimum concentration of test compound which inhibits the growth of bacteria as visible or seen by the naked eye. This test can also be carried out by agar dilution method.
(§2) The compounds of the present invention were tested against a panel of standard microorganisms obtained from ATCC (American type culture collection), and a Linezolid resistant strain (LRSA) i.e. PTCC 100 (Panacea type culture collection). PTCC 100 is a repository that has been created by Panacea Biotec Ltd. at Mohali, India for storage and maintenance of clinical, bacterial and other isolates developed in-house which are used for testing the test compounds. Linezolid was used as comparator in all the tests.
(§3) In the broth microdilution method, the compound was dissolved in dimethylsulfoxide and two fold serial dilutions were carried out in 96 well microtitre plates. The inoculum was prepared by adjusting the turbidity of actively growing broth culture and added to the wells to obtain a final bacterial count of ˜2-5×10^4 CFU/well. The microtitre plates were incubated at 35±2° C. for 16-20 h and then read visually.

[2] = tested on: E. faecium ATCC 700221 (VRE); test: as above; assay type: cell-based; settings: Enterococcus faecium, 35±2° C., 16-20 h, read visually, read-out: MIC E. faecium ATTC 700221 (VRE)
Protocol: as §1, §2, §3

[3] = tested on: S. aureus ATCC 29213 (MSSA); test: as above; assay type: cell-based; settings: Staphylococcus aureus, 35±2° C., 16-20 h, read visually
Protocol: as §1, §2, §3

[4] = tested on: S. aureus ATCC 33591 (MRSA); test: as above; assay type: cell-based; settings: Staphylococcus aureus, 35±2° C., 16-20 h, read visually
Protocol: as §1, §2, §3

[5] = tested on: S. aureus PTCC 100 (LRSA); test: In-vitro antibacterial activity, broth microdilution MIC against linezolid resistant strain; assay type: cell-based; settings: Staphylococcus aureus
Protocol: as §1, §2, §3
PTCC 100 was developed by a procedure similar to the one cited in Antimicrobial Agents and Chemotherapy, 2008, 52, 1940. Female Swiss albino mice (18-22gm) bred in-house were inoculated with S. aureus ATCC 29213 strain and dosed orally with Linezolid at 5 mg/kg/p.o, next day mice were sacrificed after 20-22 h and intraperitoneal swab was taken and streaked onto Mueller Hinton Agar plates containing 4 and 8 μg/mL of Linezolid. Colonies obtained on 4 μg/mL and 8 μg/mL were selected from plates and further passaged into mice (SAM), dosed orally with Linezolid at 7.5 mg/kg/p.o. Mice were sacrificed and intraperitoneal swabs were streaked onto plates containing higher linezolid concentration i.e 16 and 32 μg/mL and the process was repeated by incrementally increasing the concentration of Linezolid upto 10 mg/kg/p.o in mice, to finally obtain S. aureus strains resistant to Linezolid at 64 μg/mL.

[6] = tested on: S. aureus ATCC 29213; test: In-vivo efficacy: systemic model of infection in mice; set-up: species or system Staphylococcus aureus; settings: female Swiss albino mice, i.p. infection, oral dosing at 1 h and 5 h post infection, 50% survival at 7 days
Protocol: Female Swiss albino mice bred in-house were selected in weight range of 19-23 gm (n=6/group). S. aureus ATCC 29213 was grown overnight for 18-20 h, on Columbia Blood Agar (Difco; BD). Next day bacterial inoculum was prepared with optical density (O.D) corresponding to cell density of ˜2˜10^9 CFU/ml and mixed with 10% of gastric mucin (Difco; BD) in ratio of 1:1 to obtain final mucin concentration of 5% w/v. 0.5 mL of bacterial inoculum was injected intraperitoneally (i.p) into all the mice. Compounds obtained in the present invention, hereinafter referred as Test compounds were formulated in 0.25% Carboxymethylcellulose (C.M.C) and Tween 80, at different dose levels and then administered orally at 1 h and 5 h post infection. Linezolid was used as standard control. Saline was administered to the infection control group which received neither the test compound nor the standard drug. […] Numbers of survivors in each group were noted and ED50 of test compound on the basis of 50% survival was calculated through regression analysis.

[7] = PTCC100, read-out: MIC S. aureus PTCC 100 (LRSA)

Structure (SMILES) | MIC [1] [µg/mL] | MIC [2] [µg/mL] | MIC [3] [µg/mL] | MIC [4] [µg/mL] | MIC [5, 7] [µg/mL] | MIC ([5]; PTCC100, read-out: MIC of isolated colonies (PTCC 100)) [µg/mL] | ED50 values S. aureus ATCC 29213 [6] [mg/kg/p.o.]
COC(=O)NC[C@H]1CN(c2cc(F)c(N3CCN(C(=O)CNC(=O)c4cn5ccncc5n4)CC3)c(F)c2)C(=O)O1 [Compound 1] | 0.5 (≈ 0.873 µM) | 0.25 (≈ 0.437 µM) | 0.5 (≈ 0.873 µM) | 0.25 (≈ 0.437 µM) | 0.25 (≈ 0.437 µM) | – | –
CC(=O)NC[C@H]1CN(c2cc(F)c(N3CCN(C(=O)[C@H](CC(C)C)NC(=O)c4cn5ccncc5n4)CC3)c(F)c2)C(=O)O1 [Compound 2] | 2 (≈ 3.26 µM) | 1 (≈ 1.63 µM) | 2 (≈ 3.26 µM) | 2 (≈ 3.26 µM) | 4 (≈ 6.53 µM) | – | –
COC(=O)NC[C@H]1CN(c2ccc(N3CCN(C(=O)CNC(=O)c4cn5ccncc5n4)CC3)c(F)c2)C(=O)O1 [Compound 3] | 0.5 (≈ 0.902 µM) | 0.25 (≈ 0.451 µM) | 0.5 (≈ 0.902 µM) | 0.5 (≈ 0.902 µM) | 2 (≈ 3.61 µM) | – | –
COC(=O)NC[C@H]1CN(c2cc(F)c(N3CCN(C(=O)[C@H](CO)NC(=O)c4cn5ccncc5n4)CC3)c(F)c2)C(=O)O1 [Compound 4] | 0.5 (≈ 0.83 µM) | 0.5 (≈ 0.83 µM) | 0.5 (≈ 0.83 µM) | 0.5 (≈ 0.83 µM) | 1 (≈ 1.66 µM) | – | –
COC(=O)NC[C@H]1CN(c2cc(F)c(N3CCN(C(=O)[C@H](C)NC(=O)c4cn5ccncc5n4)CC3)c(F)c2)C(=O)O1 [Compound 5] | 0.5 (≈ 0.852 µM) | 0.5 (≈ 0.852 µM) | 0.5 (≈ 0.852 µM) | 0.5 (≈ 0.852 µM) | 1 (≈ 1.7 µM) | – | –
CC(=O)NC[C@H]1CN(c2cc(F)c(N3CCN(C(=O)CNC(=O)c4cn5ccncc5n4)CC3)c(F)c2)C(=O)O1 [Compound 6] | 0.5 (≈ 0.898 µM) | 0.5 (≈ 0.898 µM) | 0.5 (≈ 0.898 µM) | 0.5 (≈ 0.898 µM) | 1 (≈ 1.8 µM) | – | –
CC(=O)NC[C@H]1CN(c2cc(F)c(N3CCN(C(=O)C4(NC(=O)c5cn6ccncc6n5)CCCC4)CC3)c(F)c2)C(=O)O1 [Compound 7] | 8 (≈ 13.1 µM) | 8 (≈ 13.1 µM) | 32 (≈ 52.4 µM) | 16 (≈ 26.2 µM) | – | – | –
COC(=O)NC[C@H]1CN(c2ccc(N3CCCN(C(=O)CNC(=O)c4cn5ccncc5n4)CC3)c(F)c2)C(=O)O1 [Compound 25] | 1 (≈ 1.76 µM) | 1 (≈ 1.76 µM) | 2 (≈ 3.52 µM) | 2 (≈ 3.52 µM) | – | – | –
COC(=O)NC[C@H]1CN(c2cc(F)c(N3CCN(C(=O)CNC(=O)c4ccc(Cl)nc4)CC3)c(F)c2)C(=O)O1 [Compound 130] | 0.25 (≈ 0.441 µM) | 0.125 (≈ 0.22 µM) | 0.25 (≈ 0.441 µM) | 0.25 (≈ 0.441 µM) | 8 (≈ 14.1 µM) | – | –
C[C@H](NC(=O)c1cn2cccnc2n1)C(=O)N1CCN(c2c(F)cc(N3C[C@H](CNC(=O)c4ccno4)OC3=O)cc2F)CC1 [Compound 190] | 0.25 (≈ 0.401 µM) | 0.5 (≈ 0.802 µM) | 0.25 (≈ 0.401 µM) | 0.25 (≈ 0.401 µM) | – | – | –
COC(=O)NC[C@H]1CN(c2cc(F)c(N3CCN(C(=O)[C@H](C)NC(=O)c4ccc(F)nc4)CC3)c(F)c2)C(=O)O1 [Compound 196] | 0.5 (≈ 0.886 µM) | 0.25 (≈ 0.443 µM) | 0.5 (≈ 0.886 µM) | 0.5 (≈ 0.886 µM) | – | – | –
COC(=O)NC[C@H]1CN(c2cc(F)c(N3CCN(C(=O)[C@H](C)NC(=O)c4cccnc4F)CC3)c(F)c2)C(=O)O1 [Compound 197] | 0.5 (≈ 0.886 µM) | 0.25 (≈ 0.443 µM) | 1 (≈ 1.77 µM) | 0.5 (≈ 0.886 µM) | – | – | –
CC(=O)NC[C@H]1CN(c2ccc(N3CCOCC3)c(F)c2)C(=O)O1 [Linezolid, reference compound] | 2 (≈ 5.93 µM) | 2 (≈ 5.93 µM) | 2 (≈ 5.93 µM) | 1 (≈ 2.96 µM) | 32 (≈ 94.9 µM) | 64 | 6.0
